Results: ChEMBL document CHEMBL5104092, “An insight into the recent development of the clinical candidates for the treatment of malaria and their target proteins” (Eur J Med Chem, 2021)
≈ marks a conversion by molar mass, not a printed value. One block for each molecule: values may come before it.

Columns and labels:
HepG2 = test: Cytotoxicity against human HepG2 cells; type: functional, cell-based
Plasmodium yoelii [1] = test: In vivo antimalarial activity against Plasmodium yoelii infected in mouse; type: functional
Plasmodium falciparum [2] = test: Antimalarial activity against Plasmodium falciparum Dd2; type: functional, organism-based
[3] = Binding affinity to Plasmodium falciparum quadruple mutant DHFR assessed as inhibition constant
[4] = Dissociation constant, pKa of compound; type: physicochemical
[5] = Inhibition of Plasmodium falciparum DHODH
Plasmodium falciparum [6] = test: Antimalarial activity against chloroquine-sensitive Plasmodium falciparum 3D7 by Giemsa staining method; type: functional, organism-based
[7] = Drug elimination in human urine assessed as unchanged fraction; type: ADME; conditions: read-out: Drug excretion
Plasmodium yoelii [8] = test: In vivo antimalarial activity against chloroquine resistant Plasmodium yoelii N-67 infected in Swiss albino mouse assessed as suppression of parasitemia at 25 mg/kg measured upto 28 days relative to control; type: functional; conditions: time <= 28 day
Plasmodium falciparum [9] = test: Antimalarial activity against chloroquine sensitive Plasmodium falciparum 3D7 incubated for 72 hrs by malaria SYBR green I nucleic acid staining dye based fluorescence assay; type: functional, organism-based; conditions: 3D7, 72 h
Plasmodium falciparum [10] = test: Antimalarial activity against chloroquine resistant Plasmodium falciparum K1 incubated for 72 hrs by malaria SYBR green I nucleic acid staining dye based fluorescence assay; type: functional, organism-based; conditions: K1, 72 h
L6 = test: Cytotoxicity against rat L6 cells; type: functional, cell-based
Plasmodium falciparum [11] = test: In vivo antimalarial activity against Plasmodium falciparum infected in SCID mouse; type: functional
Plasmodium falciparum [12] = test: Antimalarial activity against Plasmodium falciparum NF54; type: functional, organism-based
Plasmodium falciparum [13] = test: Antimalarial activity against Plasmodium falciparum K1; type: functional, organism-based
Plasmodium falciparum [14] = test: Antimalarial activity against chloroquine-sensitive Plasmodium falciparum D6 assessed as parasitic LDH activity incubated for 72 hrs by malstat reagent method; type: functional, organism-based; conditions: D6, 72 h
Plasmodium falciparum [15] = test: Antimalarial activity against chloroquine-sensitive Plasmodium falciparum W2 assessed as parasitic LDH activity incubated for 72 hrs by malstat reagent method; type: functional, organism-based; conditions: W2, 72 h
[16] = Cytotoxicity against African green monkey Vero cells; type: toxicity, cell-based, Chlorocebus sabaeus
Plasmodium falciparum [17] = test: Antiplasmodial activity against chloroquine sensitive Plasmodium falciparum NF54 by parasite lactate dehydrogenase assay; type: functional, organism-based
CYP450 = CYP450 (Homo sapiens, UniProt P04798+P05177+P05181+P08684+P10632+P10635+P11509+P11712+P13584+P20813+P20815+P20853+P24462+P24903+P33260+P33261+P51589+P78329+P98187+Q02928+Q08477+Q16678+Q16696+Q5TCH4+Q6VVX0+Q7Z449+Q8TAV3+Q96SQ9+Q9HB55); test: Inhibition of CYP450 (unknown origin); type: ADME, protein assay
[18] = Inhibition of Plasmodium vivax DHODH
[19] = target: Voltage-gated inwardly rectifying potassium channel KCNH2 (Homo sapiens, UniProt Q12809); test: Inhibition of human ERG; type: toxicity
Sequence of Voltage-gated inwardly rectifying potassium channel KCNH2 (Q12809 whole entry): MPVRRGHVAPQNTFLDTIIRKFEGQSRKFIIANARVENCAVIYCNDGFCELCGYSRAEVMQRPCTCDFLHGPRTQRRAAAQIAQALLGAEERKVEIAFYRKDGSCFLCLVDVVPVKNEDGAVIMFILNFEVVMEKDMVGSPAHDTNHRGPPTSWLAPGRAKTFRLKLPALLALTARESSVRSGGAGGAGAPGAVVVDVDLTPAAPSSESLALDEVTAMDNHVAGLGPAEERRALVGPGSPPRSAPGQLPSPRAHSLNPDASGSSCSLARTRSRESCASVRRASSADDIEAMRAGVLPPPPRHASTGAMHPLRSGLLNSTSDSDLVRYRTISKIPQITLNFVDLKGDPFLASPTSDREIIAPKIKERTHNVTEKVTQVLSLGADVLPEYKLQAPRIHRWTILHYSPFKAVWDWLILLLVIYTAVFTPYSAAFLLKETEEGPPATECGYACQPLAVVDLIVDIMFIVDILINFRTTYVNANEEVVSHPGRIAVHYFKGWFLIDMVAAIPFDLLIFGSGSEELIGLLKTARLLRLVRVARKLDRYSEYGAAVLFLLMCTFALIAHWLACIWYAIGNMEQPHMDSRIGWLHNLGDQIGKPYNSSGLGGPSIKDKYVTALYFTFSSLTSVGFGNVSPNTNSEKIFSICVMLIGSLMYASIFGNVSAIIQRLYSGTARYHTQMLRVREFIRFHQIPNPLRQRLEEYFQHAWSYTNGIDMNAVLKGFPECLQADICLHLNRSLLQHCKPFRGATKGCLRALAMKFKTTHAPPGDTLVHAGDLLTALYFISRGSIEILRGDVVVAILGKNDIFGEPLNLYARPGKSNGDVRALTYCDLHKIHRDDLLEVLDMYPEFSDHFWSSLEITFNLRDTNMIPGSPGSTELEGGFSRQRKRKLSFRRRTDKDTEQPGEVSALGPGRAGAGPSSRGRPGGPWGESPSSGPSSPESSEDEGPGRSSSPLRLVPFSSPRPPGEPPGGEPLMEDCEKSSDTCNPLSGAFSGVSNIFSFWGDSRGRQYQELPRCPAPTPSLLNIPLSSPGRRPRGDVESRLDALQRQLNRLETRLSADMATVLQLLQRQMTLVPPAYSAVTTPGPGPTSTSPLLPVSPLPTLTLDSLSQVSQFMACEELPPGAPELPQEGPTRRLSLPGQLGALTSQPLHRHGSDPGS

Plasmodium falciparum [20] = test: Antimalarial activity against chloroquine resistant Plasmodium falciparum Dd2 incubated for 48 hrs by SYBR green I fluorescence based assay; type: functional, organism-based; conditions: Dd2, 48 h
Plasmodium falciparum [21] = test: Antimalarial activity against chloroquine resistant Plasmodium falciparum W2 incubated for 48 hrs by SYBR green I fluorescence based assay; type: functional, organism-based; conditions: W2, 48 h
Plasmodium falciparum [22] = test: Antimalarial activity against chloroquine sensitive Plasmodium falciparum NF54 incubated for 48 hrs by SYBR green I fluorescence based assay; type: functional, organism-based; conditions: NF54, 48 h
Plasmodium falciparum [23] = test: Antimalarial activity against chloroquine resistant Plasmodium falciparum K1 incubated for 48 hrs by SYBR green I fluorescence based assay; type: functional, organism-based; conditions: K1, 48 h
[24] = Inhibition of Plasmodium flaciparum B7 membrane recombinant ATP4 expressed in Escherichia coli BL21 (DE3) cells; design: species or system Plasmodium falciparum
[25] = Inhibition of Plasmodium flaciparum 3D7_2 membrane recombinant ATP4 expressed in Escherichia coli BL21 (DE3) cells; design: species or system Plasmodium falciparum
[26] = Selectivity ratio of IC50 for Plasmodium falciparum B7 membrane recombinant Na+ dependent ATPase activity to IC50 for Plasmodium falciparum 3D7_2 membrane recombinant Na+ dependent ATPase activity
[27] = Elimination half life in mouse blood at 16 mg/kg, po measured upto 28 days by LC-MS analysis; type: ADME, organism-based; conditions: time < 28 day, read-out: LambdaZ (converted)
Plasmodium falciparum [28] = test: Antimalarial activity against multidrug resistant Plasmodium falciparum MRA1240 after 48 hrs in presence of [3H] hypoxanthine; type: functional, organism-based
Plasmodium falciparum [29] = test: Antimalarial activity against multidrug resistant Plasmodium falciparum MRA1239 after 48 hrs in presence of [3H] hypoxanthine; type: functional, organism-based
[30] = Cmax in mouse blood at 16 mg/kg, po measured upto 28 days by LC-MS analysis; type: ADME, organism-based; design: time < 28 day, dose 16 mg/kg, route po
Plasmodium falciparum [31] = test: Antimalarial activity against multidrug resistant Plasmodium falciparum W2 after 48 hrs in presence of [3H] hypoxanthine; type: functional, organism-based
Plasmodium falciparum [32] = test: Antimalarial activity against multidrug resistant Plasmodium falciparum TM90-C2B after 48 hrs in presence of [3H] hypoxanthine; type: functional, organism-based
Plasmodium berghei = test: In vivo antimalarial activity against Plasmodium berghei infected in mouse administered po for 4 days by Peters 4 day test; type: functional; conditions: 96 h
Plasmodium falciparum [33] = test: Antimalarial activity against multidrug resistant Plasmodium falciparum Dd2 incubated for 72 hrs by malaria SYBR green I nucleic acid staining dye based fluorescence assay; type: functional, organism-based; conditions: Dd2, 72 h
[34] = Inhibition of Plasmodium vivax PI4K
[35] = Inhibition of Plasmodium falciparum recombinant DHODH incubated for 5 mins by microplate reader method
Plasmodium falciparum [36] = test: Antiplasmodial activity against chloroquine resistant Plasmodium falciparum K1 incubated for 72 hrs by malaria SYBR green I nucleic acid staining dye based fluorescence assay; type: functional, organism-based; conditions: K1, 72 h
[37] = Toxicity in Swiss mouse infected with Plasmodium yoelii N-67 assessed as survival rate at 12.5 mg/kg, po measured on day 4 relative to control; type: organism-based; conditions: in vivo, time 4 day, read-out: Activity
Plasmodium falciparum [38] = test: Antiplasmodial activity against chloroquine sensitive Plasmodium falciparum 3D7 incubated for 72 hrs by malaria SYBR green I nucleic acid staining dye based fluorescence assay; type: functional, organism-based; conditions: 3D7, 72 h
Plasmodium yoelii [39] = test: In vivo antimalarial activity against Plasmodium yoelii N-67 infected in Swiss mouse assessed as reduction in parasitemia level at 12.5 mg/kg, po measured on day 4 relative to control; type: functional; design: scale not given: the % may be the effect or the level left; conditions: time 4 day

Structure (SMILES): COc1cc2[nH]c(C)c(-c3ccc(Oc4ccc(OC(F)(F)F)cc4)cc3)c(=O)c2cc1Cl
IC50 (HepG2): > 10000 nM
ED90 (Plasmodium yoelii [1]): 0.02 mg/kg
EC50 (Plasmodium falciparum [2]): 2.5 nM

Structure (SMILES): CCc1nc(N)nc(N)c1OCCCOc1ccccc1CCC(=O)O
Ki [3]: 0.54 nM
pKa [4]: 4.5

Structure (SMILES): CCN(CC)CCCC(C)Nc1cc(OC)cc2cccnc12 (configuration not stated) [PAMAQUINE]
dose excreted [7]: < 1%

Structure (SMILES): CC(C)C[C@@H](CN1CCN(C)CC1)Nc1ccnc2cc(Cl)ccc12
Activity (Plasmodium yoelii [8]): 100%
IC50 (Plasmodium falciparum [9]): 8.8 nM
IC50 (Plasmodium falciparum [10]): 13.6 nM

Structure (SMILES): CCOC(=O)C(=CNc1cccc(N(C)C)c1)C(=O)OCC
IC50 (Plasmodium falciparum [17]): 26000 nM

Structure (SMILES): C[C@H]1[C@H](N2CCNCC2)O[C@@H]2O[C@]3(C)CC[C@H]4[C@H](C)CC[C@@H]1[C@@]24OO3
IC50 (Plasmodium falciparum [20]): 1.7 nM
IC50 (Plasmodium falciparum [21]): 1.4 nM
IC50 (Plasmodium falciparum [22]): 3.1 nM
IC50 (Plasmodium falciparum [23]): 1.9 nM

Structure (SMILES): CCC(CC)Nc1nc(C)c(C#N)c2ccccc12
IC50 [24]: 429 nM
IC50 [25]: 70 nM
Ratio IC50 [26]: 6

Structure (SMILES): CN(C(=S)NN=C(c1ccccn1)c1ccccn1)c1ccccc1
half-life [27]: 48.7 h
EC50 (Plasmodium falciparum [28]): 9.1 nM
EC50 (Plasmodium falciparum [29]): 6.9 nM
Cmax [30]: 1880 ng/mL
EC50 (Plasmodium falciparum [31]): 6.2 nM
EC50 (Plasmodium falciparum [32]): 13 nM
ED50 (Plasmodium berghei): 1.2 mg/kg/day

Structure (SMILES): CCN(CC)CCCC(C)Nc1ccnc2cc(Cl)ccc12 (configuration not stated) [CHLOROQUINE]
EC50 (Plasmodium falciparum [33]): 165 nM

Structure (SMILES): Cc1nc(Nc2ncc(N3CCN(C)[C@H](C)C3)c(Nc3cc(C)n(C)n3)n2)cc(C2CC2)c1F [SUTIDIAZINE]
pKa [4]: 8.4
IC50 (Plasmodium falciparum [12]): 9 nM
IC50 (Plasmodium falciparum [13]): 15 nM

Structure (SMILES): CC(=O)N1CCN(c2ccc(CN(C(=O)/C=C/c3ccc(C(C)(C)C)cc3)[C@@H](Cc3ccccc3)C(=O)N3CCN(Cc4ccc(C#N)cc4)CC3)cc2)CC1
pKa [4]: 6.8
ED90 (Plasmodium falciparum [11]): 3.7 mg/kg
IC50 (Plasmodium falciparum [12]): 0.4 nM
IC50 (Plasmodium falciparum [13]): 0.3 nM

Structure (SMILES): c1c2c(cc3c1OCO3)-c1cc3ccc4c(c3c[n+]1CC2)OCO4 [COPTISINE]
IC50 [35]: 1830 nM

Structure (SMILES): CCC1CCN(CC(CC(C)C)Nc2ccnc3cc(Cl)ccc23)CC1 (configuration not stated)
IC50 (Plasmodium falciparum [36]): 97.8 nM
survival at 96 h [37]: 100%
IC50 (Plasmodium falciparum [38]): 57 nM
Activity (Plasmodium yoelii [39]): 100%

The next lines start with results.

IC50 [5]: 23 nM
Structure (SMILES): NN1CN(c2ccc3ccccc3c2)C2=C(C(=O)CO2)C1=O

IC50 (Plasmodium falciparum [6]): 10 µg/mL (≈ 24.3 µM)
Structure (SMILES): CNNc1nc(NNC)nc(Nc2nc(-c3ccc(Cl)cc3Cl)cs2)n1

dose excreted [7]: < 1%
Structure (SMILES): COc1cc(NC(C)CCCN)c2ncccc2c1 (configuration not stated) [PRIMAQUINE]

dose excreted [7]: < 1%
Structure (SMILES): COc1cc(NCCCCCNC(C)C)c2ncccc2c1 [PENTAQUINE]

pKa [4]: 7.5
IC50 (Plasmodium falciparum [12]): 10 nM
IC50 (Plasmodium falciparum [13]): 0.46 nM
Structure (SMILES): CC(=O)N1CCN(c2ccc(CN(C(=O)/C=C/c3ccc(C(F)(F)F)cc3)[C@@H](Cc3ccccc3)C(=O)N3CCN(Cc4ccc(N(C)CCO)cc4)CC3)cc2)CC1
IC50 (L6): 8850 nM
ED90 (Plasmodium falciparum [11]): 8.4 mg/kg

IC50 (Plasmodium falciparum [14]): 1180 nM
IC50 (Plasmodium falciparum [15]): 1320 nM
Structure (SMILES): c1cc(N2CCOCC2)nc(NCCNc2nc(N3CCOCC3)nc(N3CCOCC3)n2)n1
IC50 [16]: > 10100 nM

IC50 (CYP450): > 10 µg/mL
IC50 [18]: 48.1 nM
IC50 (Plasmodium falciparum [12]): 1.8 nM
IC50 (Plasmodium falciparum [13]): 2.6 nM
Structure (SMILES): Cc1cc(Nc2ccc(S(F)(F)(F)(F)F)cc2)n2nc(C(C)(F)F)nc2n1 [DSM-265]
ED90 (Plasmodium falciparum [11]): 3 mg/kg
IC50 [19]: 1660 nM

IC50 [34]: 3.4 nM
Structure (SMILES): CS(=O)(=O)c1ccc(-c2cnc(N)c(-c3ccc(C(F)(F)F)nc3)c2)cc1 [MMV-048]
ED90 (Plasmodium falciparum [11]): 0.57 mg/kg
